Here are results for eleven compounds from ChEMBL document CHEMBL3826948, “Alkyl substituted aminal derivatives of HCV NS5A inhibitor MK-8742” (Bioorg Med Chem Lett, 2016).

A short description of series [1]: Inhibition of NS5A in HCV genotype 3a assessed as replicon RNA levels by real time PCR based cell based assay. Also on record: species or system Hepatitis C virus subtype 3a. Conditions: Hepatitis C virus.
The nature of series [2]: Half life in Sprague-Dawley rat at 10 mg/kg po or 2 mg/kg iv. It counts as ADME, organism-based. Conditions: in vivo.
Series [3] in a line: Cmax in Sprague-Dawley rat at 10 mg/kg, po. Also on record: dose 10 mg/kg, route oral. It counts as ADME, organism-based. Conditions: in vivo.
A short description of series [4]: Clearance in Sprague-Dawley rat at 10 mg/kg po or 2 mg/kg iv. It counts as ADME, organism-based. Conditions: in vivo.
Series [5] is described as follows: Oral bioavailability in Sprague-Dawley rat at 10 mg/kg. The format is ADME, organism-based. The note with it: in vivo.
Series [6] in a line: Inhibition of NS5A in HCV genotype 2a assessed as replicon RNA levels by real time PCR based cell based assay. Conditions: Hepatitis C virus. Also on record: species or system Hepatitis C virus subtype 2a. For orientation: A replicon is a self-replicating genome or part of one, used to study replication in cells.
The nature of series [7]: AUC in Sprague-Dawley rat at 10 mg/kg, po. The format is ADME, organism-based. Conditions: in vivo.
The nature of series [8]: Inhibition of NS5A in HCV genotype 1b assessed as replicon RNA levels by real time PCR based cell based assay. Also on record: species or system Hepatitis C virus subtype 1b. The note with it: Hepatitis C virus.
Series [9] in a line: Inhibition of NS5A in HCV genotype 2b assessed as replicon RNA levels by real time PCR based cell based assay. Conditions: Hepatitis C virus. On the set-up: species or system Hepatitis C virus subtype 2b.
The nature of series [10]: Inhibition of NS5A in HCV genotype 1a assessed as replicon RNA levels by real time PCR based cell based assay. Also on record: species or system Hepatitis C virus subtype 1a. Conditions: Hepatitis C virus.
Series [11] can be described thus: Inhibition of NS5A in HCV genotype 4a assessed as replicon RNA levels by real time PCR based cell based assay. On the set-up: species or system Hepatitis C virus subtype 4a. Conditions: Hepatitis C virus.
Series [12] in a line: Oral bioavailability in Sprague-Dawley rat at 5 mg/kg. Conditions: in vivo. It counts as ADME, organism-based.
Series [13] in a line: Half life in Sprague-Dawley rat at 5 mg/kg po or 2 mg/kg iv. The format is ADME, organism-based. The note with it: in vivo.
The nature of series [14]: AUC in Sprague-Dawley rat at 5 mg/kg, po. It counts as ADME, organism-based. Conditions: in vivo.
Series [15] can be described thus: Clearance in Sprague-Dawley rat at 5 mg/kg po or 2 mg/kg iv. It counts as ADME, organism-based. Conditions: in vivo.
Series [16] in a line: Cmax in Sprague-Dawley rat at 5 mg/kg, po. It counts as ADME, organism-based. On the set-up: dose 5 mg/kg, route oral. The note with it: in vivo.
Series [17] is described as follows: Inhibition of NS5A in HCV genotype 2a. On the set-up: species or system Hepatitis C virus subtype 2a.
A short description of series [18]: Inhibition of NS5A in HCV genotype 4a. Also on record: species or system Hepatitis C virus subtype 4a.
Series [19] can be described thus: Inhibition of NS5A in HCV genotype 1a. On the set-up: species or system Hepatitis C virus subtype 1a.
Series [20] in a line: Inhibition of NS5A in HCV genotype 3a. On the set-up: species or system Hepatitis C virus subtype 3a.
Series [21] is described as follows: Inhibition of NS5A in HCV genotype 2b. On the set-up: species or system Hepatitis C virus subtype 2b.
A short description of series [22]: Inhibition of NS5A in HCV genotype 1b. On the set-up: species or system Hepatitis C virus subtype 1b.
Series [23] has as its target Nonstructural protein 5A (Hepatitis C virus, UniProt Q5L478, Y93H). Put plainly: Inhibition of NS5A in HCV genotype 1a Y93H mutant. Also on record: species or system Hepatitis C virus subtype 1a.
The target in series [24] is Nonstructural protein 5A (Hepatitis C virus, UniProt Q5L478, L31V). Put plainly: Inhibition of NS5A in HCV genotype 1a L31V mutant. Also on record: species or system Hepatitis C virus subtype 1a.

Chain of Nonstructural protein 5A (Hepatitis C virus, UniProt Q5L478, Y93H) (Q5L478 entry or part of it Y93H): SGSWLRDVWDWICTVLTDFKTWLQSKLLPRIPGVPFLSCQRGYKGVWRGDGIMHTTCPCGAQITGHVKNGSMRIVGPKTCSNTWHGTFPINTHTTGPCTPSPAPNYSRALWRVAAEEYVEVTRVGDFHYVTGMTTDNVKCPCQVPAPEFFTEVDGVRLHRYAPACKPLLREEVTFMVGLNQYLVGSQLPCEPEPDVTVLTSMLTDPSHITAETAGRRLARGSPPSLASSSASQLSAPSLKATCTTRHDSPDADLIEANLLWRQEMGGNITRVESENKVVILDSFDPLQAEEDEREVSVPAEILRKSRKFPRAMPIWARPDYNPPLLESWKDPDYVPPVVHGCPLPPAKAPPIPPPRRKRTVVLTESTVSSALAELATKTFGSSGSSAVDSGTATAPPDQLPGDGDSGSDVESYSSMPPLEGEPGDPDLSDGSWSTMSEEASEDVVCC

The EC50 is the concentration at which the effect is half-maximal. As usually defined, the half-life is how long it takes for the measured level to halve. One may read the Cmax as the highest concentration seen after dosing. The bioavailability is dose-corrected exposure relative to a reference, in per cent. As a reminder, the AUC is concentration integrated over time. Read a low AUC as less exposure. For the compound `COC(=O)N[C@H](C(=O)N1CCC[C@H]1c1ncc(-c2ccc3c(c2)OC(C)n2c-3cc3cc(-c4cnc([C@@H]5CCCN5C(=O)[C@@H](NC(=O)OC)C(C)C)[nH]4)ccc32)[nH]1)C(C)C` (stereo not given in full), the EC50 was 0.09 nM in series [1]; 0.007 nM in series [6]; 0.003 nM in series [8]; 23 nM in series [9]; 0.003 nM in series [10]; 0.03 nM in series [11]. For the same compound, the half-life in series [2] is 2.2 h. In series [3], the concentration peaked (Cmax) at 990 nM. The compound also registered a clearance in series [4] of 8.5 mL/min/kg. For the same compound, the bioavailability in series [5] came to 26%. This compound had an AUC in series [7] of 6.2 µM·h.

`CCC1Oc2cc(-c3cnc([C@@H]4CCCN4C(=O)[C@@H](NC(=O)OC)C(C)C)[nH]3)ccc2-c2cc3cc(-c4cnc([C@@H]5CCCN5C(=O)[C@@H](NC(=O)OC)C(C)C)[nH]4)ccc3n21` (stereo not given in full): the EC50 in [1] was 0.3 nM; in [6] it was 0.001 nM; in [8], 0.002 nM; in series [9], 2 nM; in series [10] it was 0.002 nM; in series [11], 0.04 nM. The compound further came in with a bioavailability in series [12] of 43%. The compound also gave a half-life in series [13] of 3.6 h. Moreover, in [14], the AUC turned out to be 8.4 µM·h. This compound gave a clearance in [15] of 5.2 mL/min/kg. This compound also showed a Cmax in series [16] of 1220 nM.

With `COC(=O)N[C@H](C(=O)N1CCC[C@H]1c1ncc(-c2ccc3c(c2)OCn2c-3cc3cc(-c4cnc([C@@H]5CCCN5C(=O)[C@@H](NC(=O)OC)C(C)C)[nH]4)ccc32)[nH]1)C(C)C`, the EC50 was 0.007 nM in [17]; 0.06 nM in [18]; 0.01 nM in [19]; 0.5 nM in series [20]; 31 nM in series [21]; 0.008 nM in [22]. For the same compound, the EC50 in [23] worked out at 100 nM; in series [24], 3 nM.

With `COC(=O)N[C@H](C(=O)N1CCC[C@H]1c1ncc(-c2ccc3c(c2)OC(C2CC2)n2c-3cc3cc(-c4cnc([C@@H]5CCCN5C(=O)[C@@H](NC(=O)OC)C(C)C)[nH]4)ccc32)[nH]1)C(C)C` (stereo not given in full), the EC50 in series [1] worked out at 0.1 nM; in series [6], 0.002 nM; in series [8], 0.004 nM; in series [9], 1 nM; in [10] it was 0.003 nM; in [11], 0.02 nM. In series [12], this compound gave a bioavailability of 27%. In series [13], this compound had a half-life of 3.4 h. The same compound had an AUC in series [14] of 4.4 µM·h. This compound also registered a clearance in [15] of 6.2 mL/min/kg. The compound further yielded a Cmax in series [16] of 740 nM.

Turning to `COC(=O)N[C@H](C(=O)N1CCC[C@H]1c1ncc(-c2ccc3c(c2)cc2n3C3(CCCC3)Oc3cc(-c4cnc([C@@H]5C[C@@H](F)CN5C(=O)[C@@H](NC(=O)OC)C(C)C)[nH]4)cc(F)c3-2)[nH]1)C(C)C`, the EC50 in [1] came out at 3 nM; in [6], 0.004 nM; in series [8], 0.002 nM; in [9], 59 nM; in series [10], 0.005 nM; in [11] it was 0.04 nM.

In the case of `COC(=O)N[C@H](C(=O)N1CCC[C@H]1c1ncc(-c2ccc3c(c2)cc2n3C3(CCCCC3)Oc3cc(-c4cnc([C@@H]5C[C@@H](F)CN5C(=O)[C@@H](NC(=O)OC)C(C)C)[nH]4)cc(F)c3-2)[nH]1)C(C)C`, the EC50 in series [1] turned out to be 6 nM; in series [6] it was 0.2 nM; in series [8] it was 0.001 nM; in series [9] it was 95 nM; in [10], 0.008 nM; in series [11], 0.2 nM.

`COC(=O)N[C@H](C(=O)N1CCC[C@H]1c1ncc(-c2ccc3c(c2)OC(CC(F)(F)F)n2c-3cc3cc(-c4cnc([C@@H]5CCCN5C(=O)[C@@H](NC(=O)OC)C(C)C)[nH]4)ccc32)[nH]1)C(C)C` (mixture of isomers): the EC50 in [1] is 0.3 nM; in series [6], 0.02 nM; in series [8], 0.002 nM; in series [9] it was 5 nM; in [10], 0.006 nM; in series [11], 0.02 nM.

`COC(=O)N[C@H](C(=O)N1CCC[C@H]1c1ncc(-c2ccc3c(c2)OC(C2CCC(F)(F)CC2)n2c-3cc3cc(-c4cnc([C@@H]5CCCN5C(=O)[C@@H](NC(=O)OC)C(C)C)[nH]4)ccc32)[nH]1)C(C)C` (mixture of isomers): the EC50 in series [1] was 0.8 nM; in series [6] it was 0.007 nM; in series [8], 0.0008 nM; in [9] it was 4 nM; in series [10], 0.002 nM; in [11], 0.07 nM.

Turning to `COC(=O)N[C@H](C(=O)N1CCC[C@H]1c1ncc(-c2ccc3c(c2)OC(C2CCC2)n2c-3cc3cc(-c4cnc([C@@H]5CCCN5C(=O)[C@@H](NC(=O)OC)C(C)C)[nH]4)ccc32)[nH]1)C(C)C` (mixture of isomers), the EC50 in [1] stood at 1 nM; in [6], 0.006 nM; in [8], 0.005 nM; in series [9], 9 nM; in [10], 0.008 nM; in [11], 0.06 nM.

On to `COC(=O)N[C@H](C(=O)N1CCC[C@H]1c1ncc(-c2ccc3c(c2)OC(CC(C)C)n2c-3cc3cc(-c4cnc([C@@H]5CCCN5C(=O)[C@@H](NC(=O)OC)C(C)C)[nH]4)ccc32)[nH]1)C(C)C` (mixture of isomers), for which the EC50 stood at 0.4 nM in [1]; 0.008 nM in series [6]; 0.0007 nM in series [8]; 10 nM in series [9]; 0.0008 nM in series [10]; 0.02 nM in [11].

As to `COC(=O)N[C@H](C(=O)N1CCC[C@H]1c1nc(-c2ccc3c(c2)O[C@@H](c2ccccc2)n2c-3cc3cc(-c4c[nH]c([C@@H]5CCCN5C(=O)[C@@H](NC(=O)OC)C(C)C)n4)ccc32)c[nH]1)C(C)C` [ELBASVIR], the EC50 came to 0.003 nM in [17]; 0.003 nM in [18]; 0.004 nM in [19]; 0.02 nM in [20]; 3 nM in series [21]; 0.003 nM in [22]. Moreover, the EC50 in series [23] stood at 2 nM; in [24], 0.5 nM.
